Assay results as given in ChEMBL document CHEMBL3046134, “Synthesis and antiviral activity of benzimidazolyl- and triazolyl-1,3,5-triazines” (Med Chem Res, 2012).
≈ marks a conversion by molar mass, not a printed value.

Assays:
Human alphaherpesvirus 1 = assay: Antiviral activity against Human herpesvirus 1 infected African green monkey Vero cells assessed as protection against virus-induced cytopathic effect after 3 days by plaque reduction assay; type: functional, organism-based; settings: Human alphaherpesvirus 1, Vero, 72 h
[1] = Cytotoxicity against Chlorocebus aethiops (African green monkey) Vero cells assessed as cell viability after 3 days by Alamar blue assay; type: cell-based; settings: chlorocebus sabaeus
[2] = Selectivity index, ratio of CC50 for african green monkey Vero cells to EC50 for HSV1 infected in African green monkey Vero cells

SMILES | EC50 (Human alphaherpesvirus 1) [µg/mL] | CC50 at 72 h [1] [µg/mL] | Ratio CC50/EC50 [2]
Cc1ccc(Nc2nc(N)nc(CSc3nc4ccccc4[nH]3)n2)cc1 | > 10 | – | –
Nc1nc(CSc2nc3ccccc3[nH]2)nc(Nc2ccccc2)n1 | > 10 | – | –
Cc1ccccc1Nc1nc(N)nc(CSc2nnc(-c3ccccc3)n2-c2ccccc2)n1 | 7.5 (≈ 16.1 µM) | 1750 (≈ 3750 µM) | 234
Cc1ccc2[nH]c(SCc3nc(N)nc(Nc4ccccc4)n3)nc2c1 | > 10 | – | –
COc1ccc(Nc2nc(N)nc(CSc3nc4ccccc4[nH]3)n2)cc1 | > 10 | – | –
Cc1ccc2[nH]c(SCc3nc(N)nc(Nc4ccccc4C)n3)nc2c1 | > 10 | – | –
Nc1nc2c(ncn2COCCO)c(=O)[nH]1 [ACYCLOVIR] | 1.5 (≈ 6.66 µM) | 1280 (≈ 5660 µM) | 850
COc1ccc(Nc2nc(N)nc(CSc3nnc(-c4ccccc4)n3/N=C/c3ccccc3)n2)cc1 | 8 (≈ 15.7 µM) | 1500 (≈ 2940 µM) | 188
Cc1ccccc1Nc1nc(N)nc(CSc2nnc(-c3ccccc3)n2/N=C/c2ccccc2)n1 | 3.5 (≈ 7.09 µM) | 1250 (≈ 2530 µM) | 358
COc1ccc(Nc2nc(N)nc(CSc3nnc(-c4ccncc4)n3-c3ccccc3)n2)cc1 | 7 (≈ 14.5 µM) | 1500 (≈ 3100 µM) | 215
COc1ccc(Nc2nc(N)nc(CSc3nnc(-c4ccccc4)n3-c3ccccc3)n2)cc1 | > 10 | – | –
Cc1ccc(Nc2nc(N)nc(CSc3nc4cc(C)ccc4[nH]3)n2)cc1 | > 10 | – | –
Cc1ccccc1Nc1nc(N)nc(CSc2nnc(-c3ccccc3)n2/N=C/c2ccc(Br)cc2)n1 | 5 (≈ 8.73 µM) | 1500 (≈ 2620 µM) | 300
Cc1ccccc1Nc1nc(N)nc(CSc2nc3ccccc3[nH]2)n1 | 9 (≈ 24.8 µM) | > 2000 | –
Nc1nc(CSc2nc3ccccc3[nH]2)nc(Nc2ccc(Cl)cc2)n1 | 8.5 (≈ 22.1 µM) | 1500 (≈ 3910 µM) | 175
Cc1ccccc1Nc1nc(N)nc(CSc2nnc(-c3ccncc3)n2-c2ccccc2)n1 | 6 (≈ 12.8 µM) | 1650 (≈ 3530 µM) | 275
